Experimental data published in patent publication US20220175692A1, “PRESYNAPTIC GLUTAMATE RELEASE INHIBITORS FOR DECREASING NMDA ANTAGONIST SIDE EFFECTS IN ANESTHESIA” (THE CLEVELAND CLINIC FOUNDATION, priority 2020, published 2022).

Tests used:
[1] = system: ketamine-induced psychological disturbances in adults scheduled for elective noncardiac surgery; assay: Pilot randomized, double-blind trial of lamotrigine before surgery with ketamine anesthesia; format: in vivo, human
Description: We report the finding of a pilot randomized and double-blind trial in which we tested the hypothesis that a single 300-mg dose of lamotrigine given a few hours before surgery reduces ketamine-induced psychological disturbances. We enrolled 46 adults (23 Lamotrigine, 23 placebo) 18-65 years who were scheduled for elective noncardiac surgery with general anesthesia with a planned overnight stay at Cleveland Clinic main campus between April 2019 and October 2019. All included patients provided written informed consent during their preoperative clinic visit. The trial was approved by Cleveland Clinic Institutional Review Board and was registered at clinicaltrails.gov [NCT03831854; PI Kamal Maheshwari; February 2019]. It was a priori defined as a pilot trial.
All patients received ketamine 1 mg/kg bolus at induction of anesthesia followed by a 5-μg/kg/min infusion which was stopped at the end of surgery. Anesthesia generally included propofol, a muscle relaxant, fentanyl, and sevoflurane. The primary outcome was presence of the psychologic disturbances measured 30-90 min after admission to the post-anesthesia care unit. We evaluated four key items of the Brief Psychiatric Rating Scale corresponding to positive symptoms of schizophrenia: conceptual disorganization, hallucinatory behavior, suspiciousness, and unusual thought content. Each symptom was rated 1-7 (1=not present, 2=very mild, 3=mild, 4=moderate, 5=moderately severe, 6=severe, 7=extremely severe). Secondary outcomes were opioid use, pain, and postoperative nausea or vomiting in the post-anesthesia care unit.

[2] = system: psychologic disturbances associated with perioperative ketamine use; details: reported range across studies (Avidan et al. 2017); cited from earlier work
[3] = system: ketamine-induced perceptual abnormalities in healthy subjects; details: 300 mg oral lamotrigine; cited from earlier work

Row | SMILES | patients who displayed psychologic disturbances ([1]; all trial patients (lamotrigine and placebo groups), moderate dose of ketamine: 1 mg/kg bolus then 5-μg/kg/min infusion) | incidence of psychologic disturbances associated with perioperative ketamine use [2] | pain scores, difference in means lamotrigine vs placebo ([1]; 98.3% CI −1.7, 2.6, P=0.58) | Opioid use, median difference lamotrigine vs placebo ([1]; 98.3% CI −9.5, 5.0, P=0.63) | pain scores, mean±standard deviation ([1]; in the post-anesthesia care unit, lamotrigine 300 mg patients) | patients who experienced nausea or vomiting ([1]; in vivo) | patients with psychologic disturbances (four key items of the Brief Psychiatric Rating Scale) ([1]; single 300-mg dose of lamotrigine a few hours before surgery, ketamine 1 mg/kg bolus then 5-μg/kg/min infusion, measured 30-90 min after admission to post-anesthesia care unit, n=23) | effect on ketamine-induced perceptual abnormalities [3]
1 | CNC1(c2ccccc2Cl)CCCCC1=O (centres unmarked) [ketamine] | 6% | 7% to 27 |  |  |  |  |  | 
2 | Nc1nnc(-c2cccc(Cl)c2Cl)c(N)n1 [lamotrigine] |  |  | 0.5 | −2.3 | 4.9±3.1 | Five | No patients | significantly decreased
